Test results reported in ChEMBL document CHEMBL3885861, “Open TG-GATES”.

Organism: Rattus norvegicus
Test: Open TG-GATES - Regimen: Daily Repeat
Type: toxicity, organism-based, Sprague-Dawley
Design: regimen Daily Repeat, gender Male, age 6 weeks
Conditions: in vivo, po, 0 mg/kg, route gavage, dose level Control; for APTT / Bas / Eos / Fbg / Hb / Ht / Lym / MCH / MCHC / MCV / Mono / Neu / PT / Plat / RBC / Ret / WBC: tissue Blood; for KIDNEY_L / KIDNEY_R / KIDNEY_TOTAL: tissue Kidney; for LIVER: tissue Liver; for A/G / ALP / ALT / AST / BUN / CRE / Ca / Cl / DBIL / GLC / IP / K / LDH / Na / PL / RALB / TBIL / TC / TG / TP / gamma-GTP: tissue Plasma

COc1ccc(Cc2nccc3cc(OC)c(OC)cc23)cc1OC [PAPAVERINE]
TERMINAL_BW (72 h, time 3 day): 240.5 g | APTT (72 h, time 3 day): 21.1 s | Bas (72 h, time 3 day): 0% | Eos (72 h, time 3 day): 1% | Fbg (72 h, time 3 day): 326.8 mg/dL | Hb (72 h, time 3 day): 13.5 g/dL | Ht (72 h, time 3 day): 40.7% | Lym (72 h, time 3 day): 81.2% | MCH (72 h, time 3 day): 21 pg | MCHC (72 h, time 3 day): 33.4% | MCV (72 h, time 3 day): 63 fL | Mono (72 h, time 3 day): 2.2% | Neu (72 h, time 3 day): 14.4% | PT (72 h, time 3 day): 15.8 s | Plat (72 h, time 3 day): 114.4 x10_4/uL | RBC (72 h, time 3 day): 645.6 x10_4/ul | Ret (72 h, time 3 day): 6.6% | WBC (72 h, time 3 day): 105.4 x10_2/uL | KIDNEY_L (72 h, time 3 day): 1 g | KIDNEY_R (72 h, time 3 day): 1 g | KIDNEY_TOTAL (72 h, time 3 day): 2 g | LIVER (72 h, time 3 day): 11.4 g | A/G (72 h, time 3 day): 1.2 | ALP (72 h, time 3 day): 1572.8 IU/L | ALT (72 h, time 3 day): 41.4 IU/L | AST (72 h, time 3 day): 70.2 IU/L | BUN (72 h, time 3 day): 16 mg/dL | CRE (72 h, time 3 day): 0.2 mg/dL | Ca (72 h, time 3 day): 11 mg/dL | Cl (72 h, time 3 day): 108.2 meq/L | DBIL (72 h, time 3 day): 0 mg/dL | GLC (72 h, time 3 day): 202.2 mg/dL | IP (72 h, time 3 day): 7.2 mg/dL | K (72 h, time 3 day): 4.2 meq/L | LDH (72 h, time 3 day): 171.6 IU/L | Na (72 h, time 3 day): 142.6 meq/L | PL (72 h, time 3 day): 136.4 mg/dL | RALB (72 h, time 3 day): 3 g/dL | TBIL (72 h, time 3 day): 0.004 mg/dL | TC (72 h, time 3 day): 72 mg/dL | TG (72 h, time 3 day): 116 mg/dL | TP (72 h, time 3 day): 5.5 g/dL | gamma-GTP (72 h, time 3 day): 1.2 IU/L | TERMINAL_BW ([…], time 7 day): 267.4 g | TERMINAL_BW ([…], time 14 day): 326.9 g | TERMINAL_BW ([…], time 28 day): 413.6 g | APTT ([…], time 7 day): 23.2 s | Bas ([…], time 7 day): 0% | Eos ([…], time 7 day): 0.8% | Fbg ([…], time 7 day): 299 mg/dL | Hb ([…], time 7 day): 13.7 g/dL | Ht ([…], time 7 day): 40.3% | Lym ([…], time 7 day): 80% | MCH ([…], time 7 day): 21 pg | MCHC ([…], time 7 day): 34.1% | MCV ([…], time 7 day): 61.6 fL | Mono ([…], time 7 day): 2.8% | Neu ([…], time 7 day): 14.8% | PT ([…], time 7 day): 15.7 s | Plat ([…], time 7 day): 111.7 x10_4/uL | RBC ([…], time 7 day): 654 x10_4/ul | Ret ([…], time 7 day): 5.6% | WBC ([…], time 7 day): 125.6 x10_2/uL | APTT ([…], time 14 day): 22.8 s | Bas ([…], time 14 day): 0% | Eos ([…], time 14 day): 1% | Fbg ([…], time 14 day): 316.8 mg/dL | Hb ([…], time 14 day): 14.6 g/dL | Ht ([…], time 14 day): 42.7% | Lym ([…], time 14 day): 82% | MCH ([…], time 14 day): 20.7 pg | MCHC ([…], time 14 day): 34.1% | MCV ([…], time 14 day): 60.5 fL | Mono ([…], time 14 day): 2.2% | Neu ([…], time 14 day): 13.2% | PT ([…], time 14 day): 15.5 s | Plat ([…], time 14 day): 107 x10_4/uL | RBC ([…], time 14 day): 707 x10_4/ul | Ret ([…], time 14 day): 5% | WBC ([…], time 14 day): 120 x10_2/uL | APTT ([…], time 28 day): 24.6 s | Bas ([…], time 28 day): 0% | Eos ([…], time 28 day): 1.6% | Fbg ([…], time 28 day): 315.8 mg/dL | Hb ([…], time 28 day): 14.5 g/dL | Ht ([…], time 28 day): 43.8% | Lym ([…], time 28 day): 77.8% | MCH ([…], time 28 day): 18.7 pg | MCHC ([…], time 28 day): 33% | MCV ([…], time 28 day): 56.6 fL | Mono ([…], time 28 day): 2% | Neu ([…], time 28 day): 17.8% | PT ([…], time 28 day): 16 s | Plat ([…], time 28 day): 101.3 x10_4/uL | RBC ([…], time 28 day): 775 x10_4/ul | Ret ([…], time 28 day): 3% | WBC ([…], time 28 day): 123.2 x10_2/uL | KIDNEY_L ([…], time 7 day): 1.1 g | KIDNEY_R ([…], time 7 day): 1.1 g | KIDNEY_TOTAL ([…], time 7 day): 2.2 g | KIDNEY_L ([…], time 14 day): 1.2 g | KIDNEY_R ([…], time 14 day): 1.3 g | KIDNEY_TOTAL ([…], time 14 day): 2.5 g | KIDNEY_L ([…], time 28 day): 1.4 g | KIDNEY_R ([…], time 28 day): 1.5 g | KIDNEY_TOTAL ([…], time 28 day): 3 g | LIVER ([…], time 7 day): 12.1 g | LIVER ([…], time 14 day): 14.2 g | LIVER ([…], time 28 day): 16.8 g | A/G ([…], time 7 day): 1.2 | ALP ([…], time 7 day): 1358 IU/L | ALT ([…], time 7 day): 47 IU/L | AST ([…], time 7 day): 82.2 IU/L | BUN ([…], time 7 day): 19.4 mg/dL | CRE ([…], time 7 day): 0.2 mg/dL | Ca ([…], time 7 day): 10.3 mg/dL | Cl ([…], time 7 day): 107.2 meq/L | DBIL ([…], time 7 day): 0 mg/dL | GLC ([…], time 7 day): 203.2 mg/dL | IP ([…], time 7 day): 6.7 mg/dL | K ([…], time 7 day): 4.4 meq/L | LDH ([…], time 7 day): 248.2 IU/L | Na ([…], time 7 day): 140.4 meq/L | PL ([…], time 7 day): 148.8 mg/dL | RALB ([…], time 7 day): 3 g/dL | TBIL ([…], time 7 day): 0 mg/dL | TC ([…], time 7 day): 75 mg/dL | TG ([…], time 7 day): 101.6 mg/dL | TP ([…], time 7 day): 5.5 g/dL | gamma-GTP ([…], time 7 day): 2 IU/L | A/G ([…], time 14 day): 1.1 | ALP ([…], time 14 day): 1381.4 IU/L | ALT ([…], time 14 day): 42.2 IU/L | AST ([…], time 14 day): 67 IU/L | BUN ([…], time 14 day): 17.6 mg/dL | CRE ([…], time 14 day): 0.2 mg/dL | Ca ([…], time 14 day): 10.5 mg/dL | Cl ([…], time 14 day): 106.6 meq/L | DBIL ([…], time 14 day): 0 mg/dL | GLC ([…], time 14 day): 199.6 mg/dL | IP ([…], time 14 day): 6.7 mg/dL | K ([…], time 14 day): 4.4 meq/L | LDH ([…], time 14 day): 164.6 IU/L | Na ([…], time 14 day): 142.8 meq/L | PL ([…], time 14 day): 148.4 mg/dL | RALB ([…], time 14 day): 3 g/dL | TBIL ([…], time 14 day): 0.016 mg/dL | TC ([…], time 14 day): 78.4 mg/dL | TG ([…], time 14 day): 119.2 mg/dL | TP ([…], time 14 day): 5.7 g/dL | gamma-GTP ([…], time 14 day): 2.4 IU/L | A/G ([…], time 28 day): 1.1 | ALP ([…], time 28 day): 1231 IU/L | ALT ([…], time 28 day): 44.4 IU/L | AST ([…], time 28 day): 68.2 IU/L | BUN ([…], time 28 day): 20 mg/dL | CRE ([…], time 28 day): 0.2 mg/dL | Ca ([…], time 28 day): 10.2 mg/dL | Cl ([…], time 28 day): 105 meq/L | DBIL ([…], time 28 day): 0 mg/dL | GLC ([…], time 28 day): 211.4 mg/dL | IP ([…], time 28 day): 6.2 mg/dL | K ([…], time 28 day): 4.1 meq/L | LDH ([…], time 28 day): 160.4 IU/L | Na ([…], time 28 day): 141.4 meq/L | PL ([…], time 28 day): 147.4 mg/dL | RALB ([…], time 28 day): 3.1 g/dL | TBIL ([…], time 28 day): 0.008 mg/dL | TC ([…], time 28 day): 73.6 mg/dL | TG ([…], time 28 day): 132.6 mg/dL | TP ([…], time 28 day): 5.8 g/dL | gamma-GTP ([…], time 28 day): 3.2 IU/L
